{"source": "patent US20140357512A1", "about": "“HISTONE DEACETYLASE (HDAC) BIOMARKERS IN MULTIPLE MYELOMA” (priority 2013, published 2014)", "tested_on": "human myeloma cell line MM.1S", "assay": "SILAC acetylated-lysine peptide profiling, HDAC inhibitor vs DMSO (light/heavy ratio)", "format": "cell-based", "source_text": "An embodiment of the invention comprises utilizing the SILAC method in order to quantitate changes in protein expression between two or more populations of cells. The SILAC method is a technique based on mass spectrometry that detects differences in protein abundance among samples using non-radioactive isotopic labeling. The SILAC method is known in the art, and described in detail in Ong et al., “Stable Isotope Labeling by Amino Acids in Cell Culture, SILAC, as a Simple and Accurate Approach to Expression Proteomics”, Molecular & Cellular Proteomics, vol. 1, pp. 376-386 (2002), which is incorporated herein by reference in its entirety.\nBriefly, the SILAC method involves growing two populations of cells in cell culture. The first population of cells is grown in growth media containing normal amino acids (“normal media”). The second population of cells is grown in media lacking a standard essential amino acid (such as lysine), but is then supplemented with a non-radioactive, isotopically labeled form of that essential amino acid (such as lysine labeled with ^13C atoms, rather than normal ^12C atoms), which is called “heavy media”. When the two populations of cells are each growing in the medium, they incorporate the amino acids into all of their proteins. The growth of cells maintained in the heavy media is no different from that in normal media. All peptides containing the heavy amino acids are heavier than their normal counterparts. The cells from each of the two populations of cells are lysed. The lysates from each of the two cell populations are then combined. The combined cell lysates are then analyzed by mass spectrometry. Pairs of chemically identical peptides of different stable isotope composition can be differentiated in a mass spectrometer due to their difference in mass. The ratio of peak intensities in the mass spectrum for such peptide pairs reflects the abundance ratio for the two proteins.\nThis example describes SILAC studies that were performed to compare the effects of three different HDAC inhibitors (Compound A, Compound B, and tubastatin A) to a control on a human multiple myeloma cell line. The HDAC inhibitors were also compared amongst themselves to determine differences in their effects.\nA human myeloma cell line MM.1S was grown using either ^12C (light) or ^13C (heavy) lysine containing culture medium. The “heavy” cells were treated with DMSO as the control, and the “light” cells were treated with a single HDAC inhibitor at 37° C. for 6 hours. The heavy and light cells were lysed, and the lysates were mixed in 1:1 ratio and digested with the protease trypsin. The acetylated lysine containing peptides (due to the action of the HDAC inhibitor) in the digested peptide pool were captured by a non-specific anti-acetylated lysine antibody cocktail (the antibodies identify both light and heavy acetylated peptides), and subjected to mass spectrometry analysis in order to identify thousands of individual peptides.\nThousands of peptides were identified in pairs (^12C and ^13C) due to their known mass differences. The amino acid sequence and quantitative ratio (Light/Heavy) of a given peptide in two differentially treated cell lysates were then determined and annotated with their possible protein (gene) sources.\nAs stated above, three HDAC inhibitors (Compound A, Compound B, and Tubastatin A) were used. Thus, the SILAC method was performed three times, with a different HDAC inhibitor compared to a control each time. Accordingly, there are three pairs of quantitative data in the table below, i.e., Compound A:DMSO, Compound B:DMSO, and Tubastatin A:DMSO. A cut-off of 1.30 fold of change (increase or decrease) was then used to determine “changed” or “+” in the table, and any peptides with a fold of change less than 1.3 fold were determined to be “unchanged” or “0” in the table. Those peptides that were not identified were marked as “NA” in the table. […]"}
{"smiles": "O=C(NO)c1cnc(NC2(c3cccc(F)c3)CCCCC2)nc1", "note": "[Compound B, 2-((1-(3-fluorophenyl)cyclohexyl)amino)-N-hydroxypyrimidine-5-carboxamide]", "values": [{"measurement": "L/H ratio of acetylated peptide", "setting": "LCMLYHPDK(ac)HRDPELK (SEQ ID NO: 389), Isoform 3 of DnaJ homolog subfamily C member 11 [45], DNAJC11", "value": "−0.69", "unit": "log 2"}, {"measurement": "L/H ratio of acetylated peptide", "setting": "LHSNYYK(ac)HK (SEQ ID NO: 371), Uncharacterized protein C6orf125 [69], C6orf125", "value": 0.52, "unit": "log 2"}, {"measurement": "L/H ratio of acetylated peptide", "setting": "LHYK(ac)HESWLLHR (SEQ ID NO: 385), Deoxycytidine kinase [211], DCK", "value": "−0.43", "unit": "log 2"}, {"measurement": "light to heavy ratio (L/H ratio) of acetylated peptide, log 2 scale", "setting": "LIK(ac)VHLDK (SEQ ID NO: 215), 40S ribosomal protein S7 [155], RPS7", "value": 0.00}, {"measurement": "L/H ratio of acetylated peptide", "setting": "LK(ac)ADVFK (SEQ ID NO: 375), Isoform 1 of Chromodomain-helicase-DNA-binding protein 4 [959], CHD4", "value": "−0.45", "unit": "log 2"}, {"measurement": "L/H ratio of acetylated peptide", "setting": "LK(ac)AEKYR (SEQ ID NO: 414), Isoform 1 of Leucine-rich repeat and IQ domain-containing protein 3 [557], LRRIQ3", "value": "−1.00", "unit": "log 2"}, {"measurement": "L/H ratio of acetylated peptide LYK(ac)[…] (SEQ ID NO: 4)", "setting": "LMNB1 [261], log 2 scale, drug vs DMSO", "value": 0.48}, {"measurement": "L/H ratio of acetylated peptide […](ac)LENAR (SEQ ID NO: 58)", "setting": "LMNB1 [271], log 2 scale, drug vs DMSO", "value": 0.00}, {"measurement": "light to heavy ratio (L/H ratio) of acetylated peptide, log 2 scale", "setting": "LNEQK(ac)LAQLEEAK (SEQ ID NO: 133), ATP synthase subunit b mitochondrial [131], ATP5F1", "value": 0.00}, {"measurement": "L/H ratio of acetylated peptide", "setting": "LNPK(ac)[…] (SEQ ID NO: 448), Serine hydroxymethyltransferase mitochondrial [200], SHMT2", "value": "−0.41", "unit": "log 2"}, {"measurement": "L/H ratio of acetylated peptide GFGYK(ac)GSCFHR (SEQ ID NO: 59)", "setting": "LOC390956 [71], log 2 scale, drug vs DMSO", "value": 0.00}, {"measurement": "light to heavy ratio (L/H ratio) of acetylated peptide, log 2 scale", "setting": "LSLDK(ac)VFR (SEQ ID NO: 226), Stomatin-like protein 2 [145], STOML2", "value": 0.00}, {"measurement": "light to heavy ratio (L/H ratio) of acetylated peptide, log 2 scale", "setting": "LTEAKPVDK(ac)VK (SEQ ID NO: 221), cDNA FLJ60124 highly similar to Mitochondrial dicarboxylate carrier [142], SLC25A10", "value": 0.00}, {"measurement": "L/H ratio of acetylated peptide", "setting": "LVQTAELTK(ac)VFEIR (SEQ ID NO: 398), Glia maturation factor gamma [119], GMFG", "value": "−0.80", "unit": "log 2"}, {"measurement": "light to heavy ratio (L/H ratio) of acetylated peptide, log 2 scale", "setting": "LYATMEK(ac)HK (SEQ ID NO: 251), Histone acetyltransferase p300 [1590], EP300", "value": 0.00}, {"measurement": "light to heavy ratio (L/H ratio) of acetylated peptide AVLK(ac)[…] (SEQ ID NO: 262)", "setting": "Laminin receptor-like protein LAMRL5 [89], SNORA6, RPSAP15, SNORA62, RPSA, drug:DMSO", "value": 0.00, "unit": "log 2"}, {"measurement": "light to heavy ratio (L/H ratio) of acetylated peptide SYVSEK(ac)DVTSAK (SEQ ID NO: 628)", "setting": "Leucine-rich PPR motif-containing protein mitochondrial [1332], gene LRPPRC, inhibitor:DMSO", "value": 0.00, "unit": "log 2"}, {"measurement": "L/H ratio of acetylated peptide ICCQFDFK(ac)R (SEQ ID NO: 60)", "setting": "MAN2A1 [373], log 2 scale, drug vs DMSO", "value": 0.00}, {"measurement": "L/H ratio of acetylated peptide YLTNQK(ac)NSNSK(ac)NDR (SEQ ID NO: 17)", "setting": "MEAF6 [69:74], log 2 scale, drug vs DMSO", "value": 0.43}, {"measurement": "light to heavy ratio (L/H ratio) of acetylated peptide, log 2 scale", "setting": "MKENQK(ac)[…] (SEQ ID NO: 169), Isoform 2 of Heat shock protein HSP 90-alpha [611], HSP90AA1", "value": 0.00}, {"measurement": "L/H ratio of acetylated peptide", "setting": "MLEK(ac)DVCEK (SEQ ID NO: 446), Isoform 1 of Protein RUFY3 [382], RUFY3", "value": 0.62, "unit": "log 2"}, {"measurement": "L/H ratio of acetylated peptide", "setting": "MLK(ac)QMLFR (SEQ ID NO: 433), Proteasome subunit beta type-7 [127], PSMB7", "value": "−0.47", "unit": "log 2"}, {"measurement": "L/H ratio of acetylated peptide TLVLSDK(ac)HSPQK(ac)K (SEQ ID NO: 5)", "setting": "MLL3 [2809:2814], log 2 scale, drug vs DMSO", "value": 0.38}, {"measurement": "L/H ratio of acetylated peptide LNK(ac)DQWEER (SEQ ID NO: 10)", "setting": "MSN [165], log 2 scale, drug vs DMSO", "value": 0.71}, {"measurement": "light to heavy ratio (L/H ratio) of acetylated peptide VHLSQK(ac)YK (SEQ ID NO: 343)", "setting": "Matrin-3 [473], MATR3, SNHG4, drug:DMSO", "value": 0.40, "unit": "log 2"}, {"measurement": "light to heavy ratio (L/H ratio) of acetylated peptide FLNK(ac)LAEER (SEQ ID NO: 342)", "setting": "Matrin-3 [836], MATR3, SNHG4, drug:DMSO", "value": "−0.44", "unit": "log 2"}, {"measurement": "light to heavy ratio (L/H ratio) of acetylated peptide MTDK(ac)CFR (SEQ ID NO: 573)", "setting": "Mitochondrial import inner membrane translocase subunit Tim13 [45], gene TIMM13, inhibitor:DMSO", "value": 0.00, "unit": "log 2"}, {"measurement": "light to heavy ratio (L/H ratio), log 2 scale, acetylated peptide YVK(ac)ALFR (SEQ ID NO: 771)", "setting": "Mitochondrial import receptor subunit TOM70 [188], gene TOMM70A, drug:DMSO", "value": 0.00}, {"measurement": "light to heavy ratio (L/H ratio) of acetylated peptide LSLLSK(ac)FR (SEQ ID NO: 564)", "setting": "Mitochondrial trifunctional protein beta subunit (Fragment) [100], gene HADHB, inhibitor:DMSO", "value": 0.00, "unit": "log 2"}, {"measurement": "light to heavy ratio (L/H ratio) of acetylated peptide EIFQNEK(ac)R (SEQ ID NO: 288)", "setting": "NAD(P) transhydrogenase mitochondrial [70], NNT, drug:DMSO", "value": 0.00, "unit": "log 2"}, {"measurement": "light to heavy ratio (L/H ratio) of acetylated peptide AISPDK(ac)DNFYFDVK (SEQ ID NO: 284)", "setting": "NAD(P) transhydrogenase mitochondrial [403], NNT, drug:DMSO", "value": 0.00, "unit": "log 2"}, {"measurement": "light to heavy ratio (L/H ratio) of acetylated peptide, log 2 scale", "setting": "NIDPK(ac)PCTPR (SEQ ID NO: 148), Isoform 1 of DAZ-associated protein 1 [83], DAZAP1", "value": 0.00}]}
